Active and inactive are the calls of the source. The calls are words filed in the database; no cut-off is given here.
What was measured:
[1] = target: Tyrosine-protein kinase JAK2 (Homo sapiens) (UniProt O60674); assay: Inhibition of human JAK2 at 1 uM by KINOMEscan assay relative to control
[2] = target: Cytoplasmic tyrosine-protein kinase BMX (Homo sapiens) (UniProt P51813); assay: Inhibition of human Bmx at 1 uM by KINOMEscan assay relative to control
MCF7 [3] = assay: Induction of apoptosis in human MCF7 cells assessed as necrotic cells at 0.5 uM incubated for 48 hrs by Annexin V-FITC/PI staining based flow cytometry (reference value: 0.03 %); type: functional
MCF7 [4] = assay: Induction of apoptosis in human MCF7 cells assessed as necrotic cells at 1 uM incubated for 48 hrs by Annexin V-FITC/PI staining based flow cytometry (reference value: 0.03 %); type: functional
[5] = target: Proto-oncogene tyrosine-protein kinase Src (Homo sapiens) (UniProt P12931); assay: Inhibition of human cSRC at 1 uM by KINOMEscan assay relative to control
Sequence of Proto-oncogene tyrosine-protein kinase Src (Homo sapiens) (P12931 2-536 limits assumed): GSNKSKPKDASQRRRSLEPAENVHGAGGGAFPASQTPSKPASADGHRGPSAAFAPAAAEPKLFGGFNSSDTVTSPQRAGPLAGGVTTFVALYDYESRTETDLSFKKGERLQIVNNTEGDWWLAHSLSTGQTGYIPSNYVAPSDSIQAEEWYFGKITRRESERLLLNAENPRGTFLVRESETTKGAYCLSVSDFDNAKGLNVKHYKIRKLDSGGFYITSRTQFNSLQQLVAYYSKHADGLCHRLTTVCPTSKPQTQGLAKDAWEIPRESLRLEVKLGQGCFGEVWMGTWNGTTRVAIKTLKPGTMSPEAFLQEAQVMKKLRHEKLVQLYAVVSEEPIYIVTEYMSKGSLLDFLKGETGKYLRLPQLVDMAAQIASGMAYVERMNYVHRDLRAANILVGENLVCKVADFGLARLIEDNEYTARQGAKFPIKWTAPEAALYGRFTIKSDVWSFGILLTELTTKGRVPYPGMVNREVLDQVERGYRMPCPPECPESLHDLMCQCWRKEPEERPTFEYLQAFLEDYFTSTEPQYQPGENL

[6] = Toxicity in BALB/C mouse xenografted with mouse 4T1-Luc cells assessed as histological change in spleen at 30 to 60 mg/kg, po qd treated for 15 days by H and E staining based analysis; type: organism-based; settings: in vivo, 360 h, dose 30-60 mg/kg, time 15 day
[7] = target: T1, Dual specificity protein kinase TTK (Homo sapiens) (UniProt P33981); assay: Inhibition of human Mps1 at 1 uM by KINOMEscan assay relative to control
T1 sequence (whole entry): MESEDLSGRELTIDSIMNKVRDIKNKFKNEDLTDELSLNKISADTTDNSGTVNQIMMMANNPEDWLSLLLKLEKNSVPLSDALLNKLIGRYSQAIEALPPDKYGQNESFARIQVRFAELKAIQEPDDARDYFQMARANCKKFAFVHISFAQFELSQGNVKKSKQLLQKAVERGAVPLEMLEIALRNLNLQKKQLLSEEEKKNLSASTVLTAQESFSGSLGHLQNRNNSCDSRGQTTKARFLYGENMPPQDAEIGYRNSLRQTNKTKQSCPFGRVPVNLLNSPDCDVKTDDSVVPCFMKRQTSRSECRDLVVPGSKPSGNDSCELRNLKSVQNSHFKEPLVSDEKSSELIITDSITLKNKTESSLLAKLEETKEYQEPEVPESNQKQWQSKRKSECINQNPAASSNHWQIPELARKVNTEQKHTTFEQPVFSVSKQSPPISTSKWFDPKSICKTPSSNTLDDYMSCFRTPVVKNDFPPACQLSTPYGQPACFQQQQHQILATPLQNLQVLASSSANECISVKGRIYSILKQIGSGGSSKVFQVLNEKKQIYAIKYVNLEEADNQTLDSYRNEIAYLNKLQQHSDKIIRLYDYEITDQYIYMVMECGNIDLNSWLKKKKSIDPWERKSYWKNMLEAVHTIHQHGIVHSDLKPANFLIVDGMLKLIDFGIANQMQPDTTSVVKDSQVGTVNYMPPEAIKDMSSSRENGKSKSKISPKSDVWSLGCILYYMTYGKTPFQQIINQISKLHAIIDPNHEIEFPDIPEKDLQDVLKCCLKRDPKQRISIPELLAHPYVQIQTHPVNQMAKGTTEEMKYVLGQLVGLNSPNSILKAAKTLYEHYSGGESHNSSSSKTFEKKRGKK

4T1 [8] = assay: Induction of cell cycle arrest in 4T1 cells at G2/M phase assessed as decrease in CDK1 level incubated for 24 hrs by Western blot analysis; type: functional, cell-based; settings: Mus musculus, dose <= 3.0 µM
AGS [9] = assay: Antiproliferative activity against human AGS cells assessed as inhibition of cell viability by MTT assay; type: functional, cell-based
[10] = target: Receptor-type tyrosine-protein kinase FLT3 (Homo sapiens) (UniProt P36888); assay: Inhibition of human FLT3 at 0.1 uM by KINOMEscan assay relative to control
4T1 [11] = assay: Induction of apoptosis in 4T1 cells assessed as increase in cleaved caspase-3 level upto 3 uM incubated for 48 hrs by Western blot analysis; type: functional, cell-based; settings: Mus musculus
A549 = assay: Antiproliferative activity against human A549 cells assessed as inhibition of cell viability by MTT assay; type: functional, cell-based
MCF7 [12] = assay: Induction of apoptosis in human MCF7 cells assessed as late apoptotic cells at 1 uM incubated for 48 hrs by Annexin V-FITC/PI staining based flow cytometry (reference value: 0.63 %); type: functional
HEK293 = assay: Antiproliferative activity against HEK293 cells assessed as inhibition of cell viability by MTT assay; type: toxicity, cell-based; settings: human
ES-2 = assay: Antiproliferative activity against human ES2 cells assessed as inhibition of cell viability by MTT assay; type: functional, cell-based
HEY = assay: Antiproliferative activity against human HEY cells assessed as inhibition of cell viability upto 10 uM incubated for 72 hrs by MTT assay; type: functional, cell-based
AGS [13] = assay: Antiproliferative activity against human AGS cells assessed as inhibition of cell viability upto 10 uM incubated for 72 hrs by MTT assay; type: functional, cell-based
L02 = assay: Antiproliferative activity against human L02 cells assessed as inhibition of cell viability by MTT assay; type: toxicity, cell-based
4T1 [14] = assay: Antiproliferative activity against 4T1 cells assessed as inhibition of cell viability incubated for 24 to 72 hrs by MTT assay; type: functional, cell-based; settings: Mus musculus, dose <= 10.0 µM, time 24-72 hrs
4T1 [15] = assay: Induction of apoptosis in 4T1 cells assessed as necrotic cells at 0.5 uM incubated for 48 hrs by Annexin V-FITC/PI staining based flow cytometry (reference value: 0.20 %); type: functional, Mus musculus
[16] = Toxicity in BALB/C mouse xenografted with mouse 4T1-Luc cells assessed as histological change in lung at 30 to 60 mg/kg, po qd treated for 15 days by H and E staining based analysis; type: organism-based; settings: in vivo, 360 h, dose 30-60 mg/kg, time 15 day
4T1 [17] = assay: Induction of apoptosis in 4T1 cells assessed as necrotic cells at 5 uM incubated for 48 hrs by Annexin V-FITC/PI staining based flow cytometry (reference value: 0.20 %); type: functional, Mus musculus
[18] = target: ALK tyrosine kinase receptor (Homo sapiens) (UniProt Q9UM73); assay: Inhibition of human ALK at 0.1 uM by KINOMEscan assay relative to control
Sequence of ALK tyrosine kinase receptor (Homo sapiens) (Q9UM73 19-1620 limits assumed): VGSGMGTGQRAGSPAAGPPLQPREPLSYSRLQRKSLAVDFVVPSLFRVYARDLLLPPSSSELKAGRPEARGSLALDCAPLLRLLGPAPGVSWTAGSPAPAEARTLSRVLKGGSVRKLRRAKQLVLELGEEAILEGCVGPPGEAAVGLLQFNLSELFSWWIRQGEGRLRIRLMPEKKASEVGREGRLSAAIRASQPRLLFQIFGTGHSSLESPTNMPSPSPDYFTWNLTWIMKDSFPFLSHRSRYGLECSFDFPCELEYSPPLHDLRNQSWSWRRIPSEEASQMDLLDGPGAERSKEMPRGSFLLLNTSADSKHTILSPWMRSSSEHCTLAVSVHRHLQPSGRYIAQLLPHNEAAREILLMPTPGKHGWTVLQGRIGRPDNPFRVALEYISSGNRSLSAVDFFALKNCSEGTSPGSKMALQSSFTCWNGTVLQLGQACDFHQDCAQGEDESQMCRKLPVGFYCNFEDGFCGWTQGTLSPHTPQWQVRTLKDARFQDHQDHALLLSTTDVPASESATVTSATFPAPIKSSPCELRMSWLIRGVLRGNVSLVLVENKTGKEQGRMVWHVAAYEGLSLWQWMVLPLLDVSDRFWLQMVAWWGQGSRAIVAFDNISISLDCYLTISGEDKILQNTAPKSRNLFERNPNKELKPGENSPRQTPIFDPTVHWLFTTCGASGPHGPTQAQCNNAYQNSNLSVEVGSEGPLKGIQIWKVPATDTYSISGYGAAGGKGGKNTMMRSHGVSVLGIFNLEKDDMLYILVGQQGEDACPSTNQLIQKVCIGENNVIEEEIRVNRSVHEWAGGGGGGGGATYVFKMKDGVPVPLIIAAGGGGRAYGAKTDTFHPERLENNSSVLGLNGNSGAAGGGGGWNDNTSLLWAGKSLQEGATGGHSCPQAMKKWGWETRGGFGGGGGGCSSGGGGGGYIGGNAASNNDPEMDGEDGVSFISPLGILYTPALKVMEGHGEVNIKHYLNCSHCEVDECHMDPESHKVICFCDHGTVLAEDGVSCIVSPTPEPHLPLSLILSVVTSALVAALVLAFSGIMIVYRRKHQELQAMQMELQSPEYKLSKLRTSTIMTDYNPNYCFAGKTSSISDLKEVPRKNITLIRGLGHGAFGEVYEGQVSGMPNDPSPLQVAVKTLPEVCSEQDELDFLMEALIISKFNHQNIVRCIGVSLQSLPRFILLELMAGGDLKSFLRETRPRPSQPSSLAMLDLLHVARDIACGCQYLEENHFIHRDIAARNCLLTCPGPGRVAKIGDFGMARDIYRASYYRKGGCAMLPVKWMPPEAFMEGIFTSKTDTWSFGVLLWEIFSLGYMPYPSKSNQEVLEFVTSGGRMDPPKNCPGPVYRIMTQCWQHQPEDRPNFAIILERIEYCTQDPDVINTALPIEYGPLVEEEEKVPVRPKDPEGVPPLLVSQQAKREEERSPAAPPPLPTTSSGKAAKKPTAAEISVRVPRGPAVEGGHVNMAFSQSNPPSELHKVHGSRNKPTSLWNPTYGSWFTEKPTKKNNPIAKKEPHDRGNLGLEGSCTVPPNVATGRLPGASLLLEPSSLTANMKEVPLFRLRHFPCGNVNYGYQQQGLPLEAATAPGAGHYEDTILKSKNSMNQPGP

MCF7 [19] = assay: Induction of apoptosis in human MCF7 cells assessed as increase in cleaved caspase-3 level upto 3 uM incubated for 48 hrs by Western blot analysis; type: functional, cell-based
4T1 [20] = assay: Antiproliferative activity against 4T1 cells assessed as inhibition of cell viability by MTT assay; type: functional, cell-based; settings: Mus musculus
4T1 [21] = assay: Induction of cell cycle arrest in 4T1 cells at G2/M phase incubated for 24 hrs by Annexin V/PI staining based flow cytometry; type: functional; settings: Mus musculus, dose <= 5.0 µM
4T1 [22] = assay: Induction of DNA damage in 4T1 cells assessed as increase in gamma-H2AX level incubated for 2 hrs by Western blot analysis; type: functional, cell-based; settings: Mus musculus, dose <= 3.0 µM
[23] = target: Angiopoietin-1 receptor (Homo sapiens) (UniProt Q02763); assay: Inhibition of human Tie2 at 1 uM by KINOMEscan assay relative to control
Sequence of Angiopoietin-1 receptor (Homo sapiens) (Q02763 whole entry): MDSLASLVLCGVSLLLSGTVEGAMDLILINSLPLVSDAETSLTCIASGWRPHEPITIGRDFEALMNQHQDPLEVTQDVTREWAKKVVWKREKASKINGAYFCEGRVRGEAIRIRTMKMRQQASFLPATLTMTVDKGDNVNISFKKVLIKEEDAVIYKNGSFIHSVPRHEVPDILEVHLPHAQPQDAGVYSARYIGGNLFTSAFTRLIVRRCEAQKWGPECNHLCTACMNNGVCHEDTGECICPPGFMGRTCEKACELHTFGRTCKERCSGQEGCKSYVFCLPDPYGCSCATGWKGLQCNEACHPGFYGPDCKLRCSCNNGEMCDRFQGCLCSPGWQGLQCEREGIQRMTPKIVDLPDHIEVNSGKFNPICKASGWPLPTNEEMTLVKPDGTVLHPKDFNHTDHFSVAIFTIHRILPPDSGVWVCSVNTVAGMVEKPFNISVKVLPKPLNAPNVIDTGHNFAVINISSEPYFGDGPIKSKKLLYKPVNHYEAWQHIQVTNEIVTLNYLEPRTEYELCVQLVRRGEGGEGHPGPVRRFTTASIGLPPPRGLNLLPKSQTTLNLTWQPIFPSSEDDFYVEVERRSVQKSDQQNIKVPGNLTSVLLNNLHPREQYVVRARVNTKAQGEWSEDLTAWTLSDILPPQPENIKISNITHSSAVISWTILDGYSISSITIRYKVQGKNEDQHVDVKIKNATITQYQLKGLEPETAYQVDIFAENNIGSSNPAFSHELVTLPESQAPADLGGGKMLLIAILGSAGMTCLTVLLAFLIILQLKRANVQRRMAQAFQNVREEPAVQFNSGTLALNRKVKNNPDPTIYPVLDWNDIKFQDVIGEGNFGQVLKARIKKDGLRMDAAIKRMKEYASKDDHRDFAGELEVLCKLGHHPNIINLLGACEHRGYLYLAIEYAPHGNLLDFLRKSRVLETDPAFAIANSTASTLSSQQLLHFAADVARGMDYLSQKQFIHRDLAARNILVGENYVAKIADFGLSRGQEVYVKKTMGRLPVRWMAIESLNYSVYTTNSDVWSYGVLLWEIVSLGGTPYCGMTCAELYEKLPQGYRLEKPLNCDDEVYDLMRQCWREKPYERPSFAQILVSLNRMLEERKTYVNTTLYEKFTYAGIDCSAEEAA

OVCAR-3 = assay: Antiproliferative activity against human OVCAR-3 cells assessed as inhibition of cell viability upto 10 uM incubated for 72 hrs by MTT assay; type: functional, cell-based
[24] = target: ALK tyrosine kinase receptor (Homo sapiens) (UniProt Q9UM73); assay: Inhibition of human ALK at 1 uM by KINOMEscan assay relative to control

Sequence of Tyrosine-protein kinase JAK2 (Homo sapiens) (O60674 whole entry): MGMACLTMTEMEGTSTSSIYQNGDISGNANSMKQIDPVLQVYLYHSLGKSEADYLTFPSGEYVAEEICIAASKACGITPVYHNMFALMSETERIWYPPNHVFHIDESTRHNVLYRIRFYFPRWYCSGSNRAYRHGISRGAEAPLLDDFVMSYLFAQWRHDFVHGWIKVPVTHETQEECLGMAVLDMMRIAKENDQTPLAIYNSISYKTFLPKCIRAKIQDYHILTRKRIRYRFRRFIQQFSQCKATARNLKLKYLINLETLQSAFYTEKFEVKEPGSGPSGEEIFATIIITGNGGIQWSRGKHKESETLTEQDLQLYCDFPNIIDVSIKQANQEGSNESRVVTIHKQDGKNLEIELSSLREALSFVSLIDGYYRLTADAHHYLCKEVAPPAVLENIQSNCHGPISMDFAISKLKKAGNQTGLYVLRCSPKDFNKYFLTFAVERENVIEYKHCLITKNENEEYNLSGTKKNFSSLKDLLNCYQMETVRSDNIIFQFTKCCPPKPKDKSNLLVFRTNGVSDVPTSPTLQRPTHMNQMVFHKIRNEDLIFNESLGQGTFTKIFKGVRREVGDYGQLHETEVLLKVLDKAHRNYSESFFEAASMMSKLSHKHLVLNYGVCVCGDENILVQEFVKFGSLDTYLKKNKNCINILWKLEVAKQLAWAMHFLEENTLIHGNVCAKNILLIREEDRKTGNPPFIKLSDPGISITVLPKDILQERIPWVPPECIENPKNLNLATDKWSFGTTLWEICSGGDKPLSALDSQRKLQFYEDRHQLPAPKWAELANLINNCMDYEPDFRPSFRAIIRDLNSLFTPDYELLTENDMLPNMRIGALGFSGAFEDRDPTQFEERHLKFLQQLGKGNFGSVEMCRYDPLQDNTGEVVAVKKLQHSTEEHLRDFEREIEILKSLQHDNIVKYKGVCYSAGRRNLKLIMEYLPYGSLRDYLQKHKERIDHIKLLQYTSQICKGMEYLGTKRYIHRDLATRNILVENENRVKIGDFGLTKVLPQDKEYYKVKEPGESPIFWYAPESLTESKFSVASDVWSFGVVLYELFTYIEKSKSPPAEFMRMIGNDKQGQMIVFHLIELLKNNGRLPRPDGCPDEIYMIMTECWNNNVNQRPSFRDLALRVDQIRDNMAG
Sequence of Cytoplasmic tyrosine-protein kinase BMX (Homo sapiens) (P51813 whole entry): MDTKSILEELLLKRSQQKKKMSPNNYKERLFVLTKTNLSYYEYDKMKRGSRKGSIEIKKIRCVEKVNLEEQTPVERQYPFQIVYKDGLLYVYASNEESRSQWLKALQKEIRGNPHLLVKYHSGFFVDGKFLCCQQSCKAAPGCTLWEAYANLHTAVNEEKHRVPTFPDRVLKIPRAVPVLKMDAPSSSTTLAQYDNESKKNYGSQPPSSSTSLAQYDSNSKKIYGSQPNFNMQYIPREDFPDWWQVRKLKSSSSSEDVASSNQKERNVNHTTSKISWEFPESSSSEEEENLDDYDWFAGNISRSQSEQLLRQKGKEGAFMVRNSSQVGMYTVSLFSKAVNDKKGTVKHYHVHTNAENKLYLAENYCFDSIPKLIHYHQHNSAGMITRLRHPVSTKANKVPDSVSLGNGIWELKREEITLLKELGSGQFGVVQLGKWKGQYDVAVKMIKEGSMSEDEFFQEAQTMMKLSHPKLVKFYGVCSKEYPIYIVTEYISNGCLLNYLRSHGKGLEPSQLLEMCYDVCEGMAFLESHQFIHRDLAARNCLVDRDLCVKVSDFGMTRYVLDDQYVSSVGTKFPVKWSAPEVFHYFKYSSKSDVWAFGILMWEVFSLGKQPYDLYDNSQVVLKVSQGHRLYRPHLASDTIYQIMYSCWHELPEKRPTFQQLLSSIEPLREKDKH

inhibition [1]: 95%
inhibition [2]: 95%
inhibition [5]: 96%
inhibition [7]: > 90%
IC50 (AGS [9]): > 3000 nM
inhibition [10]: 86%
IC50 (A549): 2030 nM
inhibition [18]: 86%
IC50 (4T1 [20]): 400 nM
inhibition [23]: 92%
inhibition [24]: 91%
SMILES: CN1CCN(c2ccc(Nc3nc(-n4nc(N)c5ccccc54)c4cc[nH]c4n3)cc2)CC1
Activity (MCF7 [3]): 0.17%
Activity (MCF7 [4]): 0.26%
Activity [6]: Non-Toxic
Activity (4T1 [8]): Dose-Dependent Effect
Activity (4T1 [11]): Active
Activity (MCF7 [12]): 14.31%
Activity (HEK293): Non-Toxic
IC50 (ES-2): > 3000 nM
inhibition (HEY): Active
inhibition (AGS [13]): Active
Activity (L02): Non-Toxic
inhibition (4T1 [14]): Dose-Dependent Effect
Activity (4T1 [15]): 0.7%
Activity [16]: Non-Toxic
Activity (4T1 [17]): 0.32%
Activity (MCF7 [19]): Active
Activity (4T1 [21]): Dose-Dependent Effect
Activity (4T1 [22]): Dose-Dependent Effect
inhibition (OVCAR-3): Active

— ChEMBL document CHEMBL5385847, “Design, synthesis and biological evaluation of a new class of 7H-pyrrolo[2,3-d]pyrimidine derivatives as Mps1 inhibitors for the treatment of breast cancer” (Eur J Med Chem, 2023)
